From patent US10842892B2, “Methods and apparatus for synthesizing imaging agents, and intermediates thereof” (Lantheus Medical Imaging, Inc., priority 2010, dated 2020)
“And” between values parts separate entries of the source, which are not always exact repeats. Equal entries are not always repeated.

Legend:
[1] = system: stress induced myocardial perfusion abnormalities; test: rest-stress imaging agent 1 PET versus Tc-99m Sestamibi SPECT MPI, single center; format: in vivo, human; settings: myocardial segments supplied by diseased coronary arteries, 13 patients
Procedure: Thirteen patients, from a single center, underwent rest-stress Tc-99m Sestamibi SPECT MPI, rest-stress imaging agent 1 PET MPI and coronary angiography. In each patient, 17 myocardial segments were visually scored for rest and stress images by independent observers who were blinded to all other results. For each patient, summed stress scores (SSS), summed rest scores (SRS), and summed difference scores (SDS) were determined from segmental scores. Percent narrowing in each coronary artery was evaluated blindly and 70% luminal diameter narrowing was considered significant.

[2] = syringe component adsorption of imaging agent 1; format: physicochemical; settings: B&D syringe, three hours
Procedure: To further identify the contact surface material that contributed to syringe retention of imaging agent 1, three additional B&D syringes were each filled with a 1 mL solution of imaging agent 1 then maintained at ambient temperature and humidity for a period of three hours. Following transfer of the individual doses as described in Example 1, the syringe barrel and butyl rubber tip plunger were then separated, measured for retained radioactivity and decay corrected. The difference in percent retained activity is statistically significant at the 95% confidence level (i.e. Prob>|t| 0.0017).

myocardial blood flow = settings: humans, assumed, equivalent to pre-clinical studies; cited from earlier work
healthy volunteers = test: single-dose dosimetry and biodistribution trial in healthy subjects (MIRD); format: in vivo, human
Procedure: The following provides results obtained from a study regarding a single-dose dosimetry, biodistribution, and safety trial of imaging agent 1 in healthy subjects. Whole body PET image data for the 12 healthy volunteers were obtained using imaging agent 1 at approximately 10 minutes, 30 minutes, 50 minutes, 2 hours, 2.5 hours, 3.83 hours, and 4.5 hours post injection. Image data were attenuation corrected at the imaging site, and were quantified based on the Medical Internal Radiation Dose (MIRD) 16 methodology by Dosimetry Analysis Laboratory, CDE Dosimetry Services (CDE) to determine kinetic data in all organs showing significant uptake of activity. Dosimetry estimates were created via kinetic modeling of the quantified image data to determine residence times, and the standard MIRD methodology. These estimates were determined using 3 assumptions regarding urinary bladder voiding intervals (2.0, 3.5, and 4.8 hr). Kinetic data, residence times, and the dosimetry estimates are reported for individuals, and as summary statistics.

patients = test: Phase 2 clinical safety of imaging agent 1 injection; format: in vivo, human
myocardial ischemia = test: imaging agent 1 and ^82Rb PET versus ^99mTc sestamibi SPECT, perfusion defect assessment (phase II); format: in vivo, human
Procedure: Twenty-six patients (20 men) who underwent ^99mTc sestamibi SPECT and imaging agent 1 PET within 6 months at a single center in a phase II clinical trial were compared to 23 patients (matched by summed difference score (SDS) on SPECT) who underwent ^99mTc sestamibi SPECT and ^82Rb PET (25-50 mCi) within 6 months without change in clinical state. PET was performed with imaging agent 1 at rest (2.3-3.9 mCi) followed 60 min or 24 h later with exercise or adenosine stress (7.3-8.6 mCi). Perfusion defects on SPECT and PET were assessed by computer-assisted visual interpretation, using the standard 17 segment, 5 point-scoring model (0=normal; 4=absent uptake). The extent and severity of ischemia (SDS) was derived from the difference between summed stress score (SSS) and summed rest scores (SRS).
Twenty six patients (20 men) underwent SPECT and PET within 6-months. PET was performed with imaging agent 1 at rest (2.3-3.9 mCi) followed 60 min (n=18) or 24 h (n=8) later with exercise (n=16) or adenosine (n=10) stress (7.3-8.6 mCi). Image quality of SPECT and PET was consensually assessed by 2 independent blinded readers and graded as excellent, good, or fair. Stress and rest perfusion defects on SPECT and PET were assessed by the same readers by computer-assisted visual interpretation, using the standard 17 segment, 5 point-scoring model (0=normal; 4=absent uptake). The extent and severity of ischemia (summed difference score (SDS)) was derived from the difference between summed stress (SSS) and summed rest scores (SRS). Image quality with PET was excellent in 24 and good in 2 patients. In contrast, there were 7 excellent, 18 good, and 1 fair quality study, p<0.001 by SPECT. In 14 patients with abnormal SPECT (SSS≥4), mean SDS was greater with PET than with SPECT (9.6±1.8 vs. 5.4±0.7, p=0.02). In all 12 patients with normal SPECT (SSS<4), SDS was zero by PET and SPECT.

[3] = system: coronary artery disease (CAD); test: Phase 2 diagnostic performance for coronary artery disease, PET versus SPECT; format: in vivo, human
From the text: 143 patients (Pts) from 21 centers, presenting with a broad spectrum of CAD pre-test likelihoods, underwent rest-stress Tc-99m labeled SPECT MPI and imaging agent 1 PET MPI. […] Their mean age was 64.5 (range: 36-85) years and 68 were males. % narrowing in each coronary artery was quantified blindly. 52/84 Pts had significant CAD (≥50% luminal diameter narrowing) and 32/84 had insignificant CAD/normal coronary arteries. In each patient, 17 myocardial segments were visually scored on rest and stress images by 3 independent, blinded readers and majority rule interpretation was determined in each patient for both PET and SPECT studies. Diagnostic performance of PET was compared to that of SPECT using ROC analysis.

[4] = 12 healthy volunteers, voiding interval 3.5 hours
[5] = average, voiding interval 3.5 hours

CC(C)(C)n1ncc(OCc2ccc(COCC[18F])cc2)c(Cl)c1=O [imaging agent 1, 2-t-butyl-4-chloro-5-[4-(2-(^18F)fluoroethoxymethyl)-benzyloxy]-2H-pyridazin-3-1]
SDS [1]: 12.3 ± 7 | SRS [1]: 3.8 ± 6.6 | SSS [1]: 16.1 ± 7.8 | Retained Activity in syringe part ([2]; Barrel): 6.9% and 5.5% and 7.0% | Retained Activity in syringe part ([2]; Plunger (butyl rubber tip)): 30.9% and 27.7% and 21.8% | first pass extraction fraction (myocardial blood flow): 0.94 | EDE (effective dose equivalent), Mean (healthy volunteers; 12 healthy volunteers): 8.0E−02 rem/mCi | absorbed dose estimate, Mean, Adrenals (healthy volunteers; 12 healthy volunteers): 5.8E−02 rem/mCi | absorbed dose estimate, Mean, Brain (healthy volunteers; 12 healthy volunteers): 9.4E−02 rem/mCi | absorbed dose estimate, Mean, Breasts (healthy volunteers; 12 healthy volunteers): 3.2E−02 rem/mCi | absorbed dose estimate, Mean, Gallbladder Wall (healthy volunteers; 12 healthy volunteers): 6.4E−02 rem/mCi | absorbed dose estimate, Mean, LLI Wall (healthy volunteers; 12 healthy volunteers): 4.3E−02 rem/mCi | absorbed dose estimate, Mean, Liver (healthy volunteers; 12 healthy volunteers): 1.5E−01 rem/mCi | absorbed dose estimate, Mean, Lungs (healthy volunteers; 12 healthy volunteers): 4.2E−02 rem/mCi | absorbed dose estimate, Mean, Muscle (healthy volunteers; 12 healthy volunteers): 3.8E−02 rem/mCi | absorbed dose estimate, Mean, Osteogenic Cells (healthy volunteers; 12 healthy volunteers): 6.9E−02 rem/mCi | absorbed dose estimate, Mean, Ovaries (healthy volunteers; 12 healthy volunteers): 4.5E−02 rem/mCi | absorbed dose estimate, Mean, Pancreas (healthy volunteers; 12 healthy volunteers): 5.9E−02 rem/mCi | absorbed dose estimate, Mean, Red Marrow (healthy volunteers; 12 healthy volunteers): 6.0E−02 rem/mCi | absorbed dose estimate, Mean, Salivary (healthy volunteers; 12 healthy volunteers): 1.3E−01 rem/mCi | absorbed dose estimate, Mean, Skin (healthy volunteers; 12 healthy volunteers): 2.9E−02 rem/mCi | absorbed dose estimate, Mean, Small Intestine (healthy volunteers; 12 healthy volunteers): 4.7E−02 rem/mCi | absorbed dose estimate, Mean, Spleen (healthy volunteers; 12 healthy volunteers): 6.0E−02 rem/mCi | absorbed dose estimate, Mean, Stomach Wall (healthy volunteers; 12 healthy volunteers): 1.5E−01 rem/mCi | absorbed dose estimate, Mean, Testes (healthy volunteers; 12 healthy volunteers): 3.4E−02 rem/mCi | absorbed dose estimate, Mean, Thymus (healthy volunteers; 12 healthy volunteers): 4.1E−02 rem/mCi | absorbed dose estimate, Mean, Thyroid (healthy volunteers; 12 healthy volunteers): 1.2E−01 rem/mCi | absorbed dose estimate, Mean, Total Body (healthy volunteers; 12 healthy volunteers): 4.5E−02 rem/mCi | absorbed dose estimate, Mean, ULI Wall (healthy volunteers; 12 healthy volunteers): 4.7E−02 rem/mCi | absorbed dose estimate, Mean, Urinary Bladder Wall (healthy volunteers; 12 healthy volunteers): 8.4E−02 rem/mCi | absorbed dose estimate, Mean, Uterus (healthy volunteers; 12 healthy volunteers): 4.6E−02 rem/mCi | ED (effective dose), Mean (healthy volunteers; [4]): 0.071 rem/mCi and 7.1E−02 rem/mCi | absorbed dose estimate, Mean, Heart Wall (healthy volunteers; [4]): 0.18 rem/mCi and 1.8E−01 rem/mCi | absorbed dose estimate, Mean, Kidneys (healthy volunteers; [4]): 0.24 rem/mCi and 2.4E−01 rem/mCi | peak uptake, kidneys (healthy volunteers; average, 12 healthy volunteers): approximately 9.4 % of the injected activity | peak uptake, liver (healthy volunteers; average, 12 healthy volunteers): approximately 19.1 % of the injected activity | absorbed dose, heart wall (healthy volunteers; [5]): 0.048 mSv/MBq | absorbed dose, kidneys (healthy volunteers; [5]): 0.066 mSv/MBq | mean ED (effective dose) (healthy volunteers; voiding interval 3.5 hours): 0.019 mSv/MBq | AEs judged to be related to the study drug (patients; 143 patients): 7 | patients with AEs judged to be related to the study drug (patients; 143 patients): 2 | seriousness of related AEs (patients; 143 patients): none were serious | treatment emergent adverse events (AEs) reported (patients; 143 patients): 100 | ECG at rest: effect on heart rate, PR interval, QRS duration, QTcF duration (patients; human, in vivo): no evidence of any clinically relevant effect | patients reporting treatment emergent adverse events (patients; of 143 patients): 61 | SDS (myocardial ischemia; 12 patients with normal SPECT (SSS<4)): zero | mean SDS (summed difference score) (myocardial ischemia; 14 patients with abnormal SPECT (SSS≥4)): 9.6±1.8 | image quality excellent, number of patients (myocardial ischemia; 26 patients, 2 blinded readers): 24 | image quality good, number of patients (myocardial ischemia; 26 patients, 2 blinded readers): 2 | differences in SDS, PET compared to SPECT (myocardial ischemia; patients with normal SPECT (SSS<4)): no differences | Diagnostic certainty of interpretation (% of cases with definitely abnormal/normal interpretation) ([3]; in vivo): 92.0% | area under the ROC curve for overall diagnosis of CAD ([3]; in vivo): 0.79±0.05 | % of images rated as either excellent or good ([3]; rest images): 96.8% | % of images rated as either excellent or good ([3]; stress images): 99.2%
